Assay results: paper PMC4401734, “The Crystal Structure of D-Threonine Aldolase from Alcaligenes xylosoxidans Provides Insight into a Metal Ion Assisted PLP-Dependent Mechanism” (PLoS ONE, 2015)

Assays:
[1] = target: T1, AxDTA; D-threonine aldolase from Alcaligenes xylosoxidans (Achromobacter xylosoxidans, UniProt A0A0J9X243); test: X-ray crystallography, […] Å; assay type: binding; settings: active site; two alternate conformations: covalent (internal aldimine with Lys59, ~40% occupancy) and non-covalent (~60%); Mn2+ nearby; crystals at pH 8.1
T1 construct: full-length, residues 1-379, cloned from genomic DNA into pET101/D-TOPO with native TGA stop (degenerate reverse primer), no tag; E. coli BL21 Star (DE3); treated by reductive lysine methylation before crystallisation (no methylation seen in density); residues 1-6 (A) and 1-7 (B) disordered; dimer in crystal
T1 sequence (A0A0J9X243 1-379): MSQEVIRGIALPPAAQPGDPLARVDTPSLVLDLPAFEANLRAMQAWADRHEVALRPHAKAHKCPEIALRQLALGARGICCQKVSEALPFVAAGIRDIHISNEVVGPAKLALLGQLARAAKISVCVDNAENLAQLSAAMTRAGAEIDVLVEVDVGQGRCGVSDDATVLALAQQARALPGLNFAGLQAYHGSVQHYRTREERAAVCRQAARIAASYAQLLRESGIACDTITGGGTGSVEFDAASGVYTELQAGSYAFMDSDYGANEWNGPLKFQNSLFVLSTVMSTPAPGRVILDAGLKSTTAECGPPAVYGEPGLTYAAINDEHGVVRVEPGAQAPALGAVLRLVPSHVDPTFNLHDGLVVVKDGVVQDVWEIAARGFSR

[2] = target: D-threonine aldolase from Alcaligenes xylosoxidans (Alcaligenes xylosoxidans IFO 12669); test: crystal structure; X-ray, 1.5 Å, space group P2(1), two molecules per asymmetric unit; crystals from 200 mM sodium chloride, 100 mM Tris/HCl pH 8.1, 13% (w/v) PEG-3350

stoichiometry N [2]	Compound	X-ray crystallography, 1.5 Å [1]
	Cc1ncc(COP(=O)(O)O)c(C=O)c1O [PLP, pyridoxal phosphate]	modeled by a molecule of pyridoxal phosphate (PLP) in two alternate conformations: covalently linked to Lys59
2	D-threonine aldolase from Alcaligenes xylosoxidans (enzyme)	
